Test results from publication PMC7979765, “trans-Translation inhibitors bind to a novel site on the ribosome and clear Neisseria gonorrhoeae in vivo” (Nature Communications, 2021).
In brackets after ≈: the same amount, converted by molar mass. Several values for one entry are separate records, joined by “and”; a condition that tells them apart may be missing. Identical values can stand only once.

Assays:
[1] = Aqueous solubility (nephelometric); type: physicochemical; conditions: for Solubility: single replicates
[2] = tested on: trans-translation; assay: microbe, parasite or virus in culture; type: cell-based, Escherichia coli; conditions: for IC50: Eco Luc reporter, one value per replicate, read-out: IC50; for Luminescence readout (Envision plate reader) / Luminescence, background subtracted (DMSO control): per replicate
Description: To verify that MBX-4132 retains activity as an inhibitor of trans-translation, we measured its dose-dependent activity against the non-stop luciferase reporter assay strain E. coli SB75 ΔtolC::kan (pluc-trpAt) essentially as described, with modifications. Briefly, serial 1.5-fold dilutions of MBX-4132 in DMSO were transferred to 96-well assay plates (Costar 3195), followed by the addition of 50 µl of an overnight culture of SB75 ΔtolC::kan (pluc-trpAt) that had been diluted to a final OD600 of 0.4 with LB media supplemented with 100 µg ampicillin/ml and 1 mM IPTG. […] The assay plates were incubated at room temperature for 2 h, and 50 µl of BrightGlo (Promega) bioluminescence reagent was added to each well. After 10 min incubation, bioluminescence intensity was measured using an Envision multi-label plate reader (Perkin Elmer). Each assay comprised three technical replicates, and the experiment was repeated three times. The fold induction for each MBX-4132 treated sample as compared to the DMSO-only sample was calculated for each technical replicate, and the average and standard deviation of the three technical was calculated. The IC50 was determined using a 4-parameter nonlinear curve fitting algorithm (GraphPad Prism).

[3] = tested on: HeLa cells; assay: Mammalian cell cytotoxicity (CC50); type: cell-based, human; conditions: HeLa, replicates
Description: The half maximal cytotoxic concentration (CC50) of each compound against HeLa cells (ATCC CCL-2) was measured as previously described. […] The mean values for each biological replicate were averaged, and the CC50 was determined using a 4-parameter nonlinear curve fitting algorithm (GraphPad Prism). The average of the CC50s from two biological replicates was calculated and reported.

[4] = tested on: Neisseria gonorrhoeae; assay: MIC, microbroth dilution, G77L medium; type: cell-based; conditions: Neisseria gonorrhoeae ATCC 49226; source data, individual replicates
[5] = tested on: HeLa cells; assay: Mammalian cell cytotoxicity (CC50); type: cell-based, human; conditions: one value per replicate
[6] = Liver microsome stability, murine; type: in vitro ADME, mouse; conditions: murine liver microsomes; for Average MLMS t½: average of replicates; for MLMS t½: individual replicates
Description: To examine potential for first-pass metabolism of analogs in the liver, the stability of analogs in the presence of liver microsome preparations (Eurofins Discovery for human, dog and rat; Xenotech for mouse) was measured using the method of Kuhnz, et al.[50]. for murine studies and Oback for the dog, human and rat studies. The amount of parent compound remaining after incubation with microsomes in the presence of NADPH over a 30 min time range was measured using a reverse-phase liquid chromatography/mass spectroscopy method that was customized for each compound. Half-lives were calculated using linear regression analysis of several time points.

[7] = tested on: Escherichia coli; assay: microbe, parasite or virus in culture; type: cell-based; conditions: E. coli KLE701 (ΔtolC::tet); source data, individual replicates

Structure (SMILES)	Average solubility [1] [µM]	Solubility [1] [µM]	IC50 [2]	NORMALIZED DATA (Fraction DMSO Control) ([3]; [CMPD] 0.78125 µM)	NORMALIZED DATA (Fraction DMSO Control) ([3]; [CMPD] 1.5625 µM)	NORMALIZED DATA (Fraction DMSO Control) ([3]; [CMPD] 3.125 µM)	NORMALIZED DATA (Fraction DMSO Control) ([3]; [CMPD] 6.25 µM)	NORMALIZED DATA (Fraction DMSO Control) ([3]; [CMPD] 12.5 µM)	NORMALIZED DATA (Fraction DMSO Control) ([3]; [CMPD] 25 µM)	NORMALIZED DATA (Fraction DMSO Control) ([3]; [CMPD] 50 µM)	NORMALIZED DATA (Fraction DMSO Control) ([3]; [CMPD] 100 µM)	MIC [4]	CC50 [5]	Average MLMS t½ [6] [min]	MLMS t½ [6]	MIC [7]	also measured
Fc1ccc(-c2nnc(NCc3ccc(Cl)cc3)o2)cc1 [MBX-3776]	25	25 (≈ 7.59 µg/mL)	≥ 25 µM	0.9425 Fraction DMSO Control and 0.9291 Fraction DMSO Control and 1.002 Fraction DMSO Control and 0.9674 Fraction DMSO Control and 0.9349 Fraction DMSO Control and 0.9583 Fraction DMSO Control	0.9887 Fraction DMSO Control and 1.033 Fraction DMSO Control and 1.0461 Fraction DMSO Control and 0.981 Fraction DMSO Control and 0.9949 Fraction DMSO Control and 1.019 Fraction DMSO Control	0.9887 Fraction DMSO Control and 0.9933 Fraction DMSO Control and 1.016 Fraction DMSO Control and 0.9805 Fraction DMSO Control and 0.9905 Fraction DMSO Control and 1.024 Fraction DMSO Control	0.964 Fraction DMSO Control and 0.9895 Fraction DMSO Control and 1.009 Fraction DMSO Control and 1.011 Fraction DMSO Control and 0.9848 Fraction DMSO Control and 0.9995 Fraction DMSO Control	0.9916 Fraction DMSO Control and 1.003 Fraction DMSO Control and 0.985 Fraction DMSO Control and 0.9785 Fraction DMSO Control and 0.9711 Fraction DMSO Control and 0.9946 Fraction DMSO Control	0.8342 Fraction DMSO Control and 0.8793 Fraction DMSO Control and 0.8796 Fraction DMSO Control and 0.8381 Fraction DMSO Control and 0.8221 Fraction DMSO Control and 0.8915 Fraction DMSO Control	0.8682 Fraction DMSO Control and 0.9316 Fraction DMSO Control and 0.8851 Fraction DMSO Control and 0.8718 Fraction DMSO Control and 0.8862 Fraction DMSO Control and 0.9022 Fraction DMSO Control	0.8662 Fraction DMSO Control and 0.9027 Fraction DMSO Control and 0.8885 Fraction DMSO Control and 0.8759 Fraction DMSO Control and 0.8519 Fraction DMSO Control and 0.9047 Fraction DMSO Control	>=30.372 µg/ml	≥ 100 µM	5.3	4.3 min and 6.3 min	>=30.372 µg/ml	–
Cc1ccc(S(=O)(=O)Nc2nnc(-c3ccc(F)cc3)o2)cc1 [MBX-4063]	100	100 (≈ 33.3 µg/mL)	≥ 25 µM	1.183 Fraction DMSO Control and 0.9487 Fraction DMSO Control and 1.005 Fraction DMSO Control	1.094 Fraction DMSO Control and 0.958 Fraction DMSO Control and 0.97 Fraction DMSO Control	1.091 Fraction DMSO Control and 0.9572 Fraction DMSO Control and 1.016 Fraction DMSO Control	1.076 Fraction DMSO Control and 0.9091 Fraction DMSO Control and 0.9832 Fraction DMSO Control	1.0577 Fraction DMSO Control and 0.9473 Fraction DMSO Control and 0.9636 Fraction DMSO Control	1.026 Fraction DMSO Control and 0.9338 Fraction DMSO Control and 0.9374 Fraction DMSO Control	1.123 Fraction DMSO Control and 0.9526 Fraction DMSO Control and 0.9567 Fraction DMSO Control	1.06 Fraction DMSO Control and 0.9108 Fraction DMSO Control and 0.964 Fraction DMSO Control	>=33.3 µg/ml	≥ 100 µM	<5	<5 min	>=33.334 µg/ml	–
O=C(Nc1nnc(C2CCCCC2)o1)c1ccc(Cl)cc1 [MBX-4370]	50	50 (≈ 15.3 µg/mL)	0.12 µM and 0.122 µM and 0.145 µM	1.07 Fraction DMSO Control and 1.036 Fraction DMSO Control and 1.021 Fraction DMSO Control and 1.042 Fraction DMSO Control and 1.024 Fraction DMSO Control and 0.9956 Fraction DMSO Control	1.061 Fraction DMSO Control and 1.02 Fraction DMSO Control and 0.9814 Fraction DMSO Control and 1.082 Fraction DMSO Control and 1.03 Fraction DMSO Control and 0.9471 Fraction DMSO Control	1.05 Fraction DMSO Control and 1.039 Fraction DMSO Control and 0.9574 Fraction DMSO Control and 1.045 Fraction DMSO Control and 1.018 Fraction DMSO Control and 0.9296 Fraction DMSO Control	1.047 Fraction DMSO Control and 1.02 Fraction DMSO Control and 0.985 Fraction DMSO Control and 1.025 Fraction DMSO Control and 0.9985 Fraction DMSO Control and 0.9262 Fraction DMSO Control	0.7981 Fraction DMSO Control and 0.8325 Fraction DMSO Control and 0.8129 Fraction DMSO Control and 0.8056 Fraction DMSO Control and 0.7525 Fraction DMSO Control and 0.7321 Fraction DMSO Control	0.4723 Fraction DMSO Control and 0.5367 Fraction DMSO Control and 0.6164 Fraction DMSO Control and 0.4594 Fraction DMSO Control and 0.5425 Fraction DMSO Control and 0.5809 Fraction DMSO Control	0.2465 Fraction DMSO Control and 0.3246 Fraction DMSO Control and 0.4191 Fraction DMSO Control and 0.3946 Fraction DMSO Control and 0.4088 Fraction DMSO Control and 0.4903 Fraction DMSO Control	0.4495 Fraction DMSO Control and 0.5491 Fraction DMSO Control and 0.5315 Fraction DMSO Control and 0.5237 Fraction DMSO Control and 0.6389 Fraction DMSO Control and 0.5972 Fraction DMSO Control	0.2388 µg/mL and 0.1196 µg/mL	18.1 µM and 19.4 µM and 21.8 µM and 14.3 µM and 14.5 µM and 13.7 µM	<5	<5 min	0.4778 µg/mL and 0.9555 µg/mL	Luminescence readout (Envision plate reader) ([2]; [Compound] 0.046875 µM): 496280 and 436160 and 442680; Luminescence readout (Envision plate reader) ([2]; [Compound] 0.0625 µM): 452080 and 467160 and 463360; Luminescence, background subtracted (DMSO control) ([2]; [Compound] 0.0625 µM): 23120 and 8920 and 25040; Luminescence readout (Envision plate reader) ([2]; [Compound] 0.09375 µM): 467480 and 440040 and 454600; Luminescence readout (Envision plate reader) ([2]; [Compound] 0.125 µM): 460600 and 443360 and 458920; Luminescence readout (Envision plate reader) ([2]; [Compound] 0.1875 µM): 449320 and 468280 and 463760; Luminescence, background subtracted (DMSO control) ([2]; [Compound] 0.1875 µM): 20360 and 10040 and 25440; Luminescence readout (Envision plate reader) ([2]; [Compound] 0.25 µM): 454000 and 469520 and 468760; Luminescence, background subtracted (DMSO control) ([2]; [Compound] 0.25 µM): 25040 and 11280 and 30440; Luminescence readout (Envision plate reader) ([2]; [Compound] 0.375 µM): 472720 and 482560 and 460640; Luminescence, background subtracted (DMSO control) ([2]; [Compound] 0.375 µM): 43760 and 24320 and 22320; Luminescence readout (Envision plate reader) ([2]; [Compound] 0.5 µM): 517120 and 524880 and 509520; Luminescence, background subtracted (DMSO control) ([2]; [Compound] 0.5 µM): 88160 and 66640 and 71200; Luminescence readout (Envision plate reader) ([2]; [Compound] 0.75 µM): 547920 and 542080 and 527800; Luminescence, background subtracted (DMSO control) ([2]; [Compound] 0.75 µM): 118960 and 83840 and 89480; Luminescence readout (Envision plate reader) ([2]; [Compound] 1 µM): 530760 and 535720 and 544960; Luminescence, background subtracted (DMSO control) ([2]; [Compound] 1 µM): 101800 and 77480 and 106640; Luminescence readout (Envision plate reader) ([2]; [Compound] 1.5 µM): 476080 and 424480 and 540520
